The test has as its system CHO DG44 cells. Nature of the test: Combination with IDMTs, IgG batch yield by ELISA (Example 6). The settings on record: VPA 0.5 mmol/l; no addition = 100%; day 5 after transfection. Type of test: cell-based, Chinese Hamster. How it is done: 10 million suspension-adapted HEK293E cells were resuspended in 0.5 ml of Ex-Cell 293 HEK 293 serum-free medium with 4 mmol/l L-glutamine (Cat. No. 14571C-[…]; Lot No. 6A0093; SAFC Biosciences, Lenexa, Kans., USA, “Ex-Cell” medium; note: “Ex-Cell” medium-as used herein-refers to a medium comprising 4 mmol/l L-glutamine) in a 50-ml filter tube each (TPP AG, Trasadingen, Switzerland; Cat. No. 87050, Lot 20050174). In a separate set, 10 million suspension-adapted CHO DG44 cells were resuspended in 0.5 ml of ProCHO5 serum-free medium with 4 mmol/[…] hypoxanthine and 0.194 g/l thymidine (BioWhittaker (Lonza), Belgium; Cat. No. BE12-[…]; Lot No. 7MB0040; “ProCHO5” medium; note: “ProCHO5” medium-as used herein-refers to a medium comprising 4 mmol/[…] hypoxanthine and 0.194 g/l thymidine) in a 50-ml filter tube each (TPP AG, Trasadingen, Switzerland; Cat. No. 87050, Lot 20050174). Then 12.5 μg plasmid DNA at a concentration of 1 μg/μl was added in each tube with the following composition 50% (6.25 μg) p-LC (SEQ ID NO: 1) 50% (6.25 μg) p-HC (SEQ ID NO: 3). Plasmid p-LC comprises the genetic information for the production of the light chain of an IgG antibody, plasmid p-HC comprises the genetic information for the production of the heavy chain of an IgG antibody. The particular vector constructs used in the present invention can also be obtained from the inventors. The inventors can be contacted via e-mail at […]. Moreover, commercial services do exist that produce any desired nucleotide sequence even comprising several kilobase pairs including complete expression cassettes in plasmid backgrounds (e.g., Invitrogen, Carlsbad, USA; Geneart, Germany.) Thus, providing the genetic sequence information of the plasmids should enable one of ordinary skill in the art to order the plasmids of the present invention at one of the commercial services listed. After shortly mixing the DNA with the cells by gentle shaking, 25 μg of 25-kd linear polyethyleneimine (“PEI”; Polysciences, Eppelheim, Germany; [2]) were added at a concentration of 1 μg/μl to each of the tubes. After shortly mixing by gentle shaking, the filter tubes containing the cells together with the DNA and PEI were transferred into an orbital shaker (Kühner Shaker Cabinet ISF-4-W, “Kühner shaker”, Kühner AG, Birsfelden, Switzerland), and the cells were incubated for 4 hours at 37° C. in a 5% CO2 atmosphere under shaking at 180 rpm. After that time, 4.5 ml of Ex-Cell medium were added to each of the filter tubes containing HEK 293 cells and 4.5 ml of Pro-CHO5 were added to each of the filter tubes containing CHO DG44 cells. Then, valproic acid was added to each of the tubes at the corresponding final concentration. In addition, the following chemicals were added to the corresponding tubes at a final concentration of: […] Azacytidine was purchased from Sigma-Aldrich Chemie GmbH, Industriestrasse 25, CH-9471 Buchs SG, Catalog Number A1287-1 VL. RG108 was purchased from Sigma-Aldrich Chemie GmbH, Industriestrasse 25, CH-9471 Buchs SG, Catalog Number R8279-10MG. The cells then were returned into the Kuhner shaker and incubated at 37° C. in a 5% CO2 atmosphere under shaking at 180 rpm. […] In short, Goat anti-human kappa light chain IgG (Biosource) was used for coating the ELISA-plates, and with AP-conjugated goat anti-human gamma chain IgG (Biosource) the synthesized IgG1 was detected. […] Absorption was measured at 405 nm against 490 nm using a microplate reader (SPECTRAmaxTM340; Molecular Devices, Palo Alto, Calif., USA).
In general terms: ELISA stands for enzyme-linked immunosorbent assay.

As for `CCCC(CCC)C(=O)O` [VPA, valproic acid], the “Fold increase in batch yield over control” value is reported as 170% ± 20%.

These data come from patent publication US20090023186A1, “USE OF VALPROIC ACID FOR ENHANCING PRODUCTION OF RECOMBINANT PROTEINS IN MAMMALIAN CELLS” (EXCELLGENE SA, priority 2007, published 2009).
